Data published in the NIST ThermoML archive (doi:10.1021/acs.jced.8b00201).

Assay: xn = mol fraction of the nth substance listed
Settings: 100 kPa, Liquid; for viscosity: Concentric cylinders viscometry; for mass density: Vibrating tube method

CCCCCCCCCO [nonan-1-ol] + O=C1CCCCC1
Settings | mass density [kg/m3] | viscosity [mPa·s]
293.15 K, x2 = 0 | 827.5 | 11.41
293.15 K, x2 = 0.0813 | 833.2 | 9.78
293.15 K, x2 = 0.1582 | 839 | 8.31
293.15 K, x2 = 0.2378 | 845.5 | 6.98
293.15 K, x2 = 0.3573 | 856.3 | 5.42
293.15 K, x2 = 0.4381 | 864.3 | 4.61
293.15 K, x2 = 0.5589 | 877.9 | 3.69
293.15 K, x2 = 0.6488 | 889.3 | 3.2
293.15 K, x2 = 0.724 | 899.9 | 2.96
293.15 K, x2 = 0.8481 | 919.6 | 2.55
293.15 K, x2 = 0.9411 | 936.8 | 2.33
298.15 K, x2 = 0 | 824 | 9.43
298.15 K, x2 = 0.0813 | 829.6 | 8.15
298.15 K, x2 = 0.1582 | 835.2 | 6.94
298.15 K, x2 = 0.2378 | 841.5 | 5.92
298.15 K, x2 = 0.3573 | 852.1 | 4.68
298.15 K, x2 = 0.4381 | 860 | 4.01
298.15 K, x2 = 0.5589 | 873.3 | 3.21
298.15 K, x2 = 0.6488 | 884.6 | 2.8
298.15 K, x2 = 0.724 | 895 | 2.59
298.15 K, x2 = 0.8481 | 914.4 | 2.24
298.15 K, x2 = 0.9411 | 931.2 | 2.11
303.15 K, x2 = 0 | 820.5 | 7.86
303.15 K, x2 = 0.0813 | 825.9 | 6.78
303.15 K, x2 = 0.1582 | 831.5 | 5.87
303.15 K, x2 = 0.2378 | 837.7 | 5.03
303.15 K, x2 = 0.3573 | 848.1 | 4.03
303.15 K, x2 = 0.4381 | 855.9 | 3.49
303.15 K, x2 = 0.5589 | 869.1 | 2.87
303.15 K, x2 = 0.6488 | 880.2 | 2.53
303.15 K, x2 = 0.724 | 890.5 | 2.37
303.15 K, x2 = 0.8481 | 909.6 | 2.08
303.15 K, x2 = 0.9411 | 926.3 | 1.95
308.15 K, x2 = 0 | 817.1 | 6.61
308.15 K, x2 = 0.0813 | 822.4 | 5.73
308.15 K, x2 = 0.1582 | 827.9 | 4.96
308.15 K, x2 = 0.2378 | 834 | 4.31
308.15 K, x2 = 0.3573 | 844.3 | 3.51
308.15 K, x2 = 0.4381 | 852 | 3.08
308.15 K, x2 = 0.5589 | 865 | 2.57
308.15 K, x2 = 0.6488 | 876 | 2.3
308.15 K, x2 = 0.724 | 886.2 | 2.16
308.15 K, x2 = 0.8481 | 905.2 | 1.93
308.15 K, x2 = 0.9411 | 921.7 | 1.79
313.15 K, x2 = 0 | 813.6 | 5.6
313.15 K, x2 = 0.0813 | 818.9 | 4.85
313.15 K, x2 = 0.1582 | 824.2 | 4.2
313.15 K, x2 = 0.2378 | 830.2 | 3.68
313.15 K, x2 = 0.3573 | 840.3 | 3.04
313.15 K, x2 = 0.4381 | 847.9 | 2.71
313.15 K, x2 = 0.5589 | 860.8 | 2.33
313.15 K, x2 = 0.6488 | 871.6 | 2.13
313.15 K, x2 = 0.724 | 881.8 | 2.02
313.15 K, x2 = 0.8481 | 900.6 | 1.81
313.15 K, x2 = 0.9411 | 917.1 | 1.67
318.15 K, x2 = 0 | 810.1 | 4.78
318.15 K, x2 = 0.0813 | 815.3 | 4.18
318.15 K, x2 = 0.1582 | 820.5 | 3.67
318.15 K, x2 = 0.2378 | 826.4 | 3.22
318.15 K, x2 = 0.3573 | 836.4 | 2.66
318.15 K, x2 = 0.4381 | 844 | 2.37
318.15 K, x2 = 0.5589 | 856.7 | 2.03
318.15 K, x2 = 0.6488 | 867.4 | 1.85
318.15 K, x2 = 0.724 | 877.5 | 1.77
318.15 K, x2 = 0.8481 | 896.3 | 1.59
318.15 K, x2 = 0.9411 | 912.8 | 1.5
323.15 K, x2 = 0 | 806.5 | 4.1
323.15 K, x2 = 0.0813 | 811.6 | 3.61
323.15 K, x2 = 0.1582 | 816.8 | 3.2
323.15 K, x2 = 0.2378 | 822.7 | 2.84
323.15 K, x2 = 0.3573 | 832.6 | 2.4
323.15 K, x2 = 0.4381 | 840.1 | 2.17
323.15 K, x2 = 0.5589 | 852.8 | 1.9
323.15 K, x2 = 0.6488 | 863.6 | 1.75
323.15 K, x2 = 0.724 | 873.7 | 1.67
323.15 K, x2 = 0.8481 | 892.5 | 1.49
323.15 K, x2 = 0.9411 | 908.9 | 1.4

O=C1CCCCC1 [cyclohexanone] + CCCCCO
Settings | mass density [kg/m3] | viscosity [mPa·s]
293.15 K, x1 = 0.0803 | 825.1 | 3.57
293.15 K, x1 = 0.1609 | 835.7 | 3.16
293.15 K, x1 = 0.2403 | 846.2 | 2.8
293.15 K, x1 = 0.3473 | 860.4 | 2.41
293.15 K, x1 = 0.4404 | 872.7 | 2.17
293.15 K, x1 = 0.5619 | 889 | 1.96
293.15 K, x1 = 0.6501 | 900.9 | 1.88
293.15 K, x1 = 0.747 | 914 | 1.87
293.15 K, x1 = 0.8494 | 928 | 1.98
293.15 K, x1 = 0.9404 | 940.5 | 2.12
293.15 K, x1 = 1 | 948.8 | 2.3
298.15 K, x1 = 0.0803 | 821.1 | 3.1
298.15 K, x1 = 0.1609 | 831.6 | 2.77
298.15 K, x1 = 0.2403 | 841.9 | 2.49
298.15 K, x1 = 0.3473 | 855.8 | 2.15
298.15 K, x1 = 0.4404 | 868 | 1.96
298.15 K, x1 = 0.5619 | 884.1 | 1.8
298.15 K, x1 = 0.6501 | 895.8 | 1.74
298.15 K, x1 = 0.747 | 908.8 | 1.74
298.15 K, x1 = 0.8494 | 922.6 | 1.83
298.15 K, x1 = 0.9404 | 934.9 | 1.97
298.15 K, x1 = 1 | 943.1 | 2.09
303.15 K, x1 = 0.0803 | 817.3 | 2.71
303.15 K, x1 = 0.1609 | 827.6 | 2.44
303.15 K, x1 = 0.2403 | 837.8 | 2.2
303.15 K, x1 = 0.3473 | 851.6 | 1.94
303.15 K, x1 = 0.4404 | 863.7 | 1.77
303.15 K, x1 = 0.5619 | 879.6 | 1.63
303.15 K, x1 = 0.6501 | 891.2 | 1.58
303.15 K, x1 = 0.747 | 904.1 | 1.58
303.15 K, x1 = 0.8494 | 917.8 | 1.67
303.15 K, x1 = 0.9404 | 930.1 | 1.78
303.15 K, x1 = 1 | 938.2 | 1.91
308.15 K, x1 = 0.0803 | 813.4 | 2.38
308.15 K, x1 = 0.1609 | 823.6 | 2.14
308.15 K, x1 = 0.2403 | 833.7 | 1.95
308.15 K, x1 = 0.3473 | 847.4 | 1.73
308.15 K, x1 = 0.4404 | 859.5 | 1.6
308.15 K, x1 = 0.5619 | 875.3 | 1.49
308.15 K, x1 = 0.6501 | 886.8 | 1.46
308.15 K, x1 = 0.747 | 899.6 | 1.46
308.15 K, x1 = 0.8494 | 913.2 | 1.54
308.15 K, x1 = 0.9404 | 925.5 | 1.64
308.15 K, x1 = 1 | 933.5 | 1.75
313.15 K, x1 = 0.0803 | 809.6 | 2.08
313.15 K, x1 = 0.1609 | 819.7 | 1.9
313.15 K, x1 = 0.2403 | 829.8 | 1.73
313.15 K, x1 = 0.3473 | 843.4 | 1.54
313.15 K, x1 = 0.4404 | 855.3 | 1.43
313.15 K, x1 = 0.5619 | 871 | 1.34
313.15 K, x1 = 0.6501 | 882.4 | 1.32
313.15 K, x1 = 0.747 | 895.1 | 1.33
313.15 K, x1 = 0.8494 | 908.7 | 1.4
313.15 K, x1 = 0.9404 | 920.8 | 1.5
313.15 K, x1 = 1 | 928.8 | 1.6
318.15 K, x1 = 0.0803 | 805.7 | 1.84
318.15 K, x1 = 0.1609 | 815.7 | 1.68
318.15 K, x1 = 0.2403 | 825.6 | 1.53
318.15 K, x1 = 0.3473 | 839.1 | 1.38
318.15 K, x1 = 0.4404 | 851 | 1.29
318.15 K, x1 = 0.5619 | 866.6 | 1.21
318.15 K, x1 = 0.6501 | 878.1 | 1.19
318.15 K, x1 = 0.747 | 890.7 | 1.21
318.15 K, x1 = 0.8494 | 904.3 | 1.28
318.15 K, x1 = 0.9404 | 916.4 | 1.37
318.15 K, x1 = 1 | 924.4 | 1.46
323.15 K, x1 = 0.0803 | 801.9 | 1.65
323.15 K, x1 = 0.1609 | 811.9 | 1.52
323.15 K, x1 = 0.2403 | 821.8 | 1.4
323.15 K, x1 = 0.3473 | 835.3 | 1.27
323.15 K, x1 = 0.4404 | 847.1 | 1.19
323.15 K, x1 = 0.5619 | 862.8 | 1.21
323.15 K, x1 = 0.6501 | 874.2 | 1.107
323.15 K, x1 = 0.747 | 886.9 | 1.13
323.15 K, x1 = 0.8494 | 900.5 | 1.19
323.15 K, x1 = 0.9404 | 912.7 | 1.27
323.15 K, x1 = 1 | 920.7 | 1.34
